Data from patent US20220289753A1, “SHP2 INHIBITORS” (IRBM S.P.A., priority 2019, published 2022).
Like-named read-outs stand apart in the source and are kept apart here.

Columns and labels:
[1] = system: ERK phosphorylation in KYSE-520 cells; assay: Phospho-ERK cellular assay (Advanced phospho-ERK1/2 (Thr202/Tyr204) TR-FRET kit); assay type: cell-based; details: read-out: pERK IC50
Description: Phospho-ERK Cellular Assay
ERK phosphorylation was detected using the “Advanced phospho-ERK1/2 (Thr202/Tyr204)” TR-FRET kit (Cisbio, Cat #64AERPEG/H), following the manufacturer reagents and instructions. […] After an overnight incubation, cells were treated with DMSO serial diluted compounds and incubated for 2 h at 37° C. After incubation, 2 μL/well of 4× Lysis Buffer (Cisbio 64KL1FDF), were added and incubated with cells for 30 min on gentle shaking. Finally, lysates were added with 2 μL/well of Eu cryptate (donor) and D2 (acceptor) conjugated antibodies (as provided by the Cisbio kit #64AERPEG/H) diluted 1:100 in Detection Buffer (as provided by the Cisbio kit #64AERPEG/H). Plates were then sealed and incubated at room temperature in the dark. After an overnight incubation, the TR-FRET signal was detected on a suitable reader (Envision, PerkinElmer). The lower the TR-FRET signal the higher the higher the SHP2 inhibition in cells. […] The percentage activity is fitted against the compound dilutions with a four-parameter logistic regression. The inflection point (i.e. the concentration at which half-maximal inhibition is achieved) is the IC50.

[2] = biological target: T1, SHP-2 enzyme (Met1-Leu525) (Homo sapiens, UniProt Q06124); assay: SHP2 inhibition enzymatic assay (DiFMUP substrate, IRS1 peptide activation); assay type: biochemical; details: SHP2 wt; activated by 500 nM IRS1 peptide; 75 μM DiFMUP substrate
T1 construct: synthetized by Origene, Met1-Leu525, cat #TP750155; purchased Origene TP750155
T1 sequence (Q06124 1-525): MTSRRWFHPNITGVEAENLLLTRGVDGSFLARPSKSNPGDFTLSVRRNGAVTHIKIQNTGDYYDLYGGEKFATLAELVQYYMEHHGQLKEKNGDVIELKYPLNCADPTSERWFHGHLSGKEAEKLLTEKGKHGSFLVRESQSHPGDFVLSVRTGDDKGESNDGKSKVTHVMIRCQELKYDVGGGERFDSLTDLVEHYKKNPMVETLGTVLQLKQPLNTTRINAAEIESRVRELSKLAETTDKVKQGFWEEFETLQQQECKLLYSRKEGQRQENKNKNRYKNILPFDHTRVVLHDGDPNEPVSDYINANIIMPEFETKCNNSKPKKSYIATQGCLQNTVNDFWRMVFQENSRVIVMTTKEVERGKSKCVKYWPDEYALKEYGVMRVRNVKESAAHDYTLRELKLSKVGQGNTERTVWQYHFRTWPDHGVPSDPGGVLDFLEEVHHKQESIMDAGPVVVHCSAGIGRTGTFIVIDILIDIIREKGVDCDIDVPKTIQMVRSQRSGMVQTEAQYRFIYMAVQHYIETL
How it was run: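 SHP-2 (Met1-Leu525, 0.5 nM final) preincubated 30 min with compounds and IRS1 activating peptide in HEPES pH 7.2 buffer with NaCl, KCl, EDTA, tween-20, 5 mM DTT. DiFMUP then added for 30 min at room temperature and fluorescence read. IC50 from four-parameter logistic fit of % inhibition.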

[3] = Homo sapiens, KYSE-520, 2 h, KYSE-520 cells, 2 h at 37° C., TR-FRET

SMILES | IC50 [1, 3] [µM] | IC50 [2] [µM] | IC50 ([1]; KYSE-520 cells, 2 h at 37° C., TR-FRET) [µM] | IC50 ([1]; Homo sapiens, KYSE-520, 2 h) [µM]
COc1nccc(Sc2cnc3[nH]c(N4CCC5(CC4)Cc4ccccc4[C@H]5N)nc3n2)c1Cl [Example 239, (S)-1′-(5-((3-chloro-2-methoxypyridin-4-yl)thio)-1H-imidazo[4,5-b]pyrazin-2-yl)-1,3-dihydrospiro[indene-2,4′-piperidin]-1-amine] | 1 to 5 | < 0.5 | – | –
N[C@@H]1c2ccccc2CC12CCN(c1nc3nc(Sc4ccnc(O)c4Cl)cnc3[nH]1)CC2 [Example 152, (S)-4-((2-(1-amino-1,3-dihydrospiro[indene-2,4′-piperidin]-1′-yl)-1H-imidazo[4,5-b]pyrazin-5-yl)thio)-3-chloropyridin-2-ol] | – | < 0.5 | – | > 5
N[C@@H]1c2cccnc2CC12CCN(c1nc3ncc(Sc4cc(Cl)c5[nH]c(=O)oc5c4)nc3[nH]1)CC2 [Example 168, (S)-6-((2-(5-amino-5,7-dihydrospiro[cyclopenta[b]pyridine-6,4′-piperidin]-1′-yl)-1H-imidazo[4,5-b]pyrazin-6-yl)thio)-4-chlorobenzo[d]oxazol-2(3H)-one] | > 5 | < 0.5 | – | –
CC1(N)CCN(c2nc3ncc(Sc4cccnc4C(F)(F)F)nc3[nH]2)CC1 [Example 1, 4-methyl-1-(6-((2-(trifluoromethyl)pyridin-3-yl)thio)-1H-imidazo[4,5-b]pyrazin-2-yl)piperidin-4-amine] | 1 to 5 | < 0.5 | – | –
N[C@@H]1c2cccnc2CC12CCN(c1nc3nc(Sc4ccncc4Cl)cnc3[nH]1)CC2 [Example 150, (S)-1′-(5-((3-chloropyridin-4-yl)thio)-1H-imidazo[4,5-b]pyrazin-2-yl)-5,7-dihydrospiro[cyclopenta[b]pyridine-6,4′-piperidin]-5-amine] | 1 to 5 | < 0.5 | – | –
Nc1nccc(Sc2cnc3[nH]c(N4CCC5(CC4)Cc4ccccc4[C@H]5N)nc3n2)c1F [Example 222, (S)-1′-(5-((2-amino-3-fluoropyridin-4-yl)thio)-1H-imidazo[4,5-b]pyrazin-2-yl)-1,3-dihydrospiro[indene-2,4′-piperidin]-1-amine] | > 5 | < 0.5 | – | –
N[C@@H]1c2cccc(F)c2CC12CCN(c1nc3nc(Sc4ccncc4Cl)cnc3[nH]1)CC2 [Example 207, (S)-1′-(5-((3-chloropyridin-4-yl)thio)-1H-imidazo[4,5-b]pyrazin-2-yl)-4-fluoro-1,3-dihydrospiro[indene-2,4′-piperidin]-1-amine] | 1 to 5 | < 0.5 | < 1 | –
N[C@@H]1c2ccccc2CC12CCN(c1nc3nc(Sc4ccncc4Cl)cnc3[nH]1)CC2 [Example 148, (S)-1′-(5-((3-chloropyridin-4-yl)thio)-1H-imidazo[4,5-b]pyrazin-2-yl)-1,3-dihydrospiro[indene-2,4′-piperidin]-1-amine] | – | < 0.5 | – | < 1
CC1(N)CCN(c2nc3nc(Sc4ccnc5cccnc45)cnc3[nH]2)CC1 [Example 62, 1-(5-((1,5-naphthyridin-4-yl)thio)-1H-imidazo[4,5-b]pyrazin-2-yl)-4-methylpiperidin-4-amine] | 1 to 5 | < 0.5 | – | –
Cn1c(N2CCC(C)(N)CC2)nc2nc(Sc3cccnc3C(F)(F)F)cnc21 [Example 52, 4-methyl-1-(1-methyl-5-((2-(trifluoromethyl)pyridin-3-yl)thio)-1H-imidazo[4,5-b]pyrazin-2-yl)piperidin-4-amine] | > 5 | < 0.5 | – | –
Cn1cc2cccc(Sc3cnc4[nH]c(N5CCC6(CC5)Cc5ccccc5[C@H]6N)nc4n3)c2n1 [Example 202, (S)-1′-(5-((2-methyl-2H-indazol-7-yl)thio)-1H-imidazo[4,5-b]pyrazin-2-yl)-1,3-dihydrospiro[indene-2,4′-piperidin]-1-amine] | 1 to 5 | < 0.5 | – | –
Nc1cc(Sc2cnc3nc(N4CCC5(CC4)Cc4ccccc4[C@H]5N)[nH]c3n2)c(Cl)cn1 [Example 185, (S)-1′-(6-((2-amino-5-chloropyridin-4-yl)thio)-1H-imidazo[4,5-b]pyrazin-2-yl)-1,3-dihydrospiro[indene-2,4′-piperidin]-1-amine] | < 1 | < 0.5 | – | –
N[C@@H]1c2cc(F)ccc2CC12CCN(c1nc3ncc(Sc4ccncc4Cl)nc3[nH]1)CC2 [Example 183, (S)-1′-(6-((3-chloropyridin-4-yl)thio)-1H-imidazo[4,5-b]pyrazin-2-yl)-6-fluoro-1,3-dihydrospiro[indene-2,4′-piperidin]-1-amine] | < 1 | < 0.5 | – | –

Further lines, with some results ahead:

IC50 [1, 3] [µM] | IC50 [2] [µM] | IC50 ([1]; KYSE-520 cells, 2 h at 37° C., TR-FRET) [µM] | SMILES | IC50 ([1]; Homo sapiens, KYSE-520, 2 h) [µM]
< 1 | < 0.5 | – | Nc1nccc(Sc2cnc3[nH]c(N4CCC5(CC4)Cc4cc(CO)ccc4[C@H]5N)nc3n2)c1Cl [Example 252, (S)-(1-amino-1′-(5-((2-amino-3-chloropyridin-4-yl)thio)-1H-imidazo[4,5-b]pyrazin-2-yl)-1,3-dihydrospiro[indene-2,4′-piperidin]-5-yl)methanol] | –
< 1 | < 0.5 | – | Nc1nccc(Sc2cnc3[nH]c(N4CCC5(CC4)Cc4c(F)cccc4[C@H]5N)nc3n2)c1Cl [Example 206, (S)-1′-(5-((2-amino-3-chloropyridin-4-yl)thio)-1H-imidazo[4,5-b]pyrazin-2-yl)-4-fluoro-1,3-dihydrospiro[indene-2,4′-piperidin]-1-amine] | –
< 1 | < 0.5 | – | Cn1ccc(Sc2cnc3nc(N4CCC5(CC4)Cc4ccccc4[C@H]5N)[nH]c3n2)c(Cl)c1=O [Example 166, (S)-4-((2-(1-amino-1,3-dihydrospiro[indene-2,4′-piperidin]-1′-yl)-1H-imidazo[4,5-b]pyrazin-6-yl)thio)-3-chloro-1-methylpyridin-2(1H)-one] | –
< 1 | < 0.5 | – | N#Cc1c(Sc2cnc3[nH]c(N4CCC5(CC4)Cc4ccccc4[C@H]5N)nc3n2)ccnc1N [Example 215, (S)-2-amino-4-((2-(1-amino-1,3-dihydrospiro[indene-2,4′-piperidin]-1′-yl)-1H-imidazo[4,5-b]pyrazin-5-yl)thio)nicotinonitrile] | –
< 1 | < 0.5 | – | Nc1nccc(Sc2cnc3[nH]c(N4CCC5(CC4)Cc4ncccc4[C@H]5N)nc3n2)c1Cl [Example 145, (S)-1′-(5-((2-amino-3-chloropyridin-4-yl)thio)-1H-imidazo[4,5-b]pyrazin-2-yl)-5,7-dihydrospiro[cyclopenta[b]pyridine-6,4′-piperidin]-5-amine] | –
< 1 | < 0.5 | – | N[C@@H]1c2ccccc2CC12CCN(c1nc3ncc(Sc4ccnc5cccnc45)nc3[nH]1)CC2 [Example 164, (S)-1′-(6-((1,5-naphthyridin-4-yl)thio)-1H-imidazo[4,5-b]pyrazin-2-yl)-1,3-dihydrospiro[indene-2,4′-piperidin]-1-amine] | –
< 1 | < 0.5 | – | N[C@@H]1c2ccccc2CC12CCN(c1nc3nc(Sc4ccc[n+]([O-])c4C(F)(F)F)cnc3[nH]1)CC2 [Example 141, (S)-3-((2-(1-amino-1,3-dihydrospiro[indene-2,4′-piperidin]-1′-yl)-1H-imidazo[4,5-b]pyrazin-5-yl)thio)-2-(trifluoromethyl)pyridine 1-oxide] | –
< 1 | < 0.5 | – | N[C@@H]1c2cc(F)ccc2CC12CCN(c1nc3ncc(Sc4cccc5c4OCCN5)nc3[nH]1)CC2 [Example 184, (S)-1′-(6-((3,4-dihydro-2H-benzo[b][1,4]oxazin-8-yl)thio)-1H-imidazo[4,5-b]pyrazin-2-yl)-6-fluoro-1,3-dihydrospiro[indene-2,4′-piperidin]-1-amine] | –
< 1 | < 0.5 | – | N[C@@H]1c2ccccc2CC12CCN(c1nc3nc(Sc4cccc5c4C(F)(F)C(=O)N5)cnc3[nH]1)CC2 [Example 162, (S)-4-((2-(1-amino-1,3-dihydrospiro[indene-2,4′-piperidin]-1′-yl)-1H-imidazo[4,5-b]pyrazin-5-yl)thio)-3,3-difluoroindolin-2-one] | –
